± gives the expanded uncertainty stated by the source.
Details: 101.33 kPa, Liquid, Buoyancy - hydrostatic balance with magnetic suspension - one sinker

CN(C)P(=O)(N(C)C)N(C)C [tris(dimethylamino)phosphine oxide]
mass density (288.15 K): 1028.54 ± 0.33 kg/m3
mass density (293.15 K): 1024.33 ± 0.33 kg/m3
mass density (298.15 K): 1020.03 ± 0.33 kg/m3
mass density (303.15 K): 1015.86 ± 0.32 kg/m3
mass density (308.15 K): 1011.61 ± 0.32 kg/m3
